{"source": "patent US6815546B2", "about": "“Analogues of camptothecin, their use as medicaments and the pharmaceutical compositions containing them” (Societe de Recherches et d'Applications Scientifiques …, priority 1995, dated 2004)", "assay_type_in_all_cases": "cell-based", "key": {"[1]": {"tested_on": "L1210 (mouse lymphocytic leukemia)", "assay": "Test on cell proliferation (MTT test), L1210", "details": "48 hours", "procedure": "(§1) a. Eight tumoral cell lines are used in this study: L1210 (mouse lymphocytic leukemia), HCT15 and LOVO (cell lines of human colon adenocarcinoma), A549 (human lung carcinoma), A172, U373 et U87 (human glioblastoma). All these lines are obtained from the American Type Culture Collection (ATCC), Rockville, Md. The L1210 cell cultures in suspension are cultured in Dulbecco's modified Eagle's medium (DMEM) (BioWhitaker, Verviers, Belgium) together with 10% of foetal calf serum inactivated by heating, 2 mM of glutamine, 50 μg/ml of penicillin and 50 μg/ml of streptomycin. The HT29 cells are cultured in mono-layer cultures in a McCoy 5a medium (Gibco, Paisley, United Kingdom) together with 10% of foetal calf serum inactivated by heat plus 2 mM of glutamine and 50 μg/ml of gentamycin. The other cells are cultured in an Earle's modified essential medium (EMEM; Gibco, Paisley, United Kingdom) together with 5% foetal calf serum inactivated by heat, 2 mM of glutamine, 50 U/ml of penicillin and 50 μg/ml of streptomycin. All the cell lines are cultured at 37° C. in a humidified atmosphere containing 95% air and 5% CO2.\n(§2) Inhibition of the tumor cell line proliferation is determined using an MTT test. 1500 L1210 cells in a culture medium (according to the needs of the cell medium) are seeded in a well of a micro-well plate (tissue culture level: 96 wells, flat bottom) 24 hours before treatment with the compounds to be tested. For these dose-response studies, the cells are incubated with each of the compounds to be tested or their corresponding solvent (controls) for 48 hours over a final concentration range of 1.10^−10 to 1.10^−4 M. All the compounds are dissolved just before use in dimethylsulphoxide (DMSO) at a concentration of 50 mM. Other dilutions of the medicaments are carried out in the culture medium. The final concentration of DMSO never exceeds 0.2% (v/v). As controls, the solutions of medicaments are replaced with the solvent which is diluted successively in the same way as the compounds to be tested.\n(§3) After the incubation period, the labeling reagent MTT (3-[4,5-dimethylthiazol-2-yl]-2,5-diphenyltetrazolium bromide; Thiazol blue, Sigma M 565, Sigma, St Louis, Mo.) is added at a final concentration of 0.3 mg/ml to each well. The cells are incubated for 4 hours at 37° C. in a humidified atmosphere. This stage allows the mitochondrial dehydrogenase of the living cells to convert the yellow tetrazolium salt MTT into crimson formazan crystals. The supernatant part is eliminated and the formazan crystals formed are solubilized with DMSO. The resultant coloured solution is quantified by absorbance at 570 nm by using a multi-cuvette scanning spectrophotometer. The data concerning the proliferation is expressed as a percentage of living cells in the treated wells, divided by the living cells in the controls. Each point represents the average of three independent experiments, each experiment represents six determinations.\n(§4) The results are expressed as percentages of the calculated proliferation by the optical density (OD) of the cells treated with a medicament divided by the OD of the control cells (cells treated with DMSO). As represented in Table II, the compounds to be tested have inhibited the proliferation of cells in a dose-dependent manner."}, "[2]": {"tested_on": "HCT15 (cell lines of human colon adenocarcinoma)", "assay": "Test on cell proliferation (MTT test), HCT15", "details": "72 hours", "procedure": "as §1, §2, §3\n(§5) For the other cell lines (HCT15, LOVO, A549, A172, U373, U87), 1000 to 2000 cells are seeded in the well of a micro-well plate 24 hours before medicinal treatment. […]\nas §4"}, "[3]": {"tested_on": "LOVO (cell lines of human colon adenocarcinoma)", "assay": "Test on cell proliferation (MTT test), LOVO", "details": "72 hours", "procedure": "as §1, §2, §3, §5, §4"}, "[4]": {"tested_on": "A549 (human lung carcinoma)", "assay": "Test on cell proliferation (MTT test), A549", "details": "72 hours", "procedure": "as §1, §2, §3, §5, §4"}, "[5]": {"tested_on": "A172 (human glioblastoma)", "assay": "Test on cell proliferation (MTT test), A172", "details": "72 hours", "procedure": "as §1, §2, §3, §5, §4"}, "[6]": {"tested_on": "U373 (human glioblastoma)", "assay": "Test on cell proliferation (MTT test), U373", "details": "72 hours", "procedure": "as §1, §2, §3, §5, §4"}, "U87 (human glioblastoma)": {"tested_on": "U87 (human glioblastoma)", "assay": "Test on cell proliferation (MTT test), U87", "details": "72 hours", "procedure": "as §1, §2, §3, §5, §4"}}, "data": [{"smiles": "CCc1c2c(nc3ccccc13)-c1cc3c(c(=O)n1C2)COC(=O)CC3(O)CC", "note": "(stereo not shown) [Example 9, 5,12-diethyl-5-hydroxy-1,4,5,13-tetrahydro-3H,15H-oxepino[3′,4′:6,7]indolizino[1,2-b]quinoline-3,15-dione]", "values": [{"measurement": "PERCENTAGE OF CELL PROLIFERATION", "setting": "[1]; 0.1 nM", "value": 74.04, "unit": "%"}, {"measurement": "PERCENTAGE OF CELL PROLIFERATION", "setting": "[1]; 1 nM", "value": 62.05, "unit": "%"}, {"measurement": "PERCENTAGE OF CELL PROLIFERATION", "setting": "[1]; 10 nM", "value": 44.72, "unit": "%"}, {"measurement": "PERCENTAGE OF CELL PROLIFERATION", "setting": "[1]; 100 nM", "value": 34.01, "unit": "%"}, {"measurement": "PERCENTAGE OF CELL PROLIFERATION", "setting": "[1]; 1 000 nM", "value": 20.20, "unit": "%"}, {"measurement": "PERCENTAGE OF CELL PROLIFERATION", "setting": "[1]; 10 000 nM", "value": 4.34, "unit": "%"}, {"measurement": "PERCENTAGE OF CELL PROLIFERATION", "setting": "[1]; 100 000 nM", "value": 1.58, "unit": "%"}, {"measurement": "PERCENTAGE OF CELL PROLIFERATION", "setting": "[2]; 0.1 nM", "value": 94.00, "unit": "%"}, {"measurement": "PERCENTAGE OF CELL PROLIFERATION", "setting": "[2]; 1 nM", "value": 89.00, "unit": "%"}, {"measurement": "PERCENTAGE OF CELL PROLIFERATION", "setting": "[2]; 10 nM", "value": 59.00, "unit": "%"}, {"measurement": "PERCENTAGE OF CELL PROLIFERATION", "setting": "[2]; 100 nM", "value": 35.00, "unit": "%"}, {"measurement": "PERCENTAGE OF CELL PROLIFERATION", "setting": "[2]; 1 000 nM", "value": 15.00, "unit": "%"}, {"measurement": "PERCENTAGE OF CELL PROLIFERATION", "setting": "[2]; 10 000 nM", "value": 8.00, "unit": "%"}, {"measurement": "PERCENTAGE OF CELL PROLIFERATION", "setting": "[2]; 100 000 nM", "value": 3.00, "unit": "%"}, {"measurement": "PERCENTAGE OF CELL PROLIFERATION", "setting": "[3]; 0.1 nM", "value": 74.00, "unit": "%"}, {"measurement": "PERCENTAGE OF CELL PROLIFERATION", "setting": "[3]; 1 nM", "value": 85.00, "unit": "%"}, {"measurement": "PERCENTAGE OF CELL PROLIFERATION", "setting": "[3]; 10 nM", "value": 44.00, "unit": "%"}, {"measurement": "PERCENTAGE OF CELL PROLIFERATION", "setting": "[3]; 100 nM", "value": 31.00, "unit": "%"}, {"measurement": "PERCENTAGE OF CELL PROLIFERATION", "setting": "[3]; 1 000 nM", "value": 21.00, "unit": "%"}, {"measurement": "PERCENTAGE OF CELL PROLIFERATION", "setting": "[3]; 10 000 nM", "value": 4.00, "unit": "%"}, {"measurement": "PERCENTAGE OF CELL PROLIFERATION", "setting": "[3]; 100 000 nM", "value": 2.00, "unit": "%"}, {"measurement": "PERCENTAGE OF CELL PROLIFERATION", "setting": "[4]; 0.1 nM", "value": 91.00, "unit": "%"}, {"measurement": "PERCENTAGE OF CELL PROLIFERATION", "setting": "[4]; 1 nM", "value": 88.00, "unit": "%"}, {"measurement": "PERCENTAGE OF CELL PROLIFERATION", "setting": "[4]; 10 nM", "value": 50.00, "unit": "%"}, {"measurement": "PERCENTAGE OF CELL PROLIFERATION", "setting": "[4]; 100 nM", "value": 31.00, "unit": "%"}, {"measurement": "PERCENTAGE OF CELL PROLIFERATION", "setting": "[4]; 1 000 nM", "value": 23.00, "unit": "%"}, {"measurement": "PERCENTAGE OF CELL PROLIFERATION", "setting": "[4]; 10 000 nM", "value": 5.00, "unit": "%"}, {"measurement": "PERCENTAGE OF CELL PROLIFERATION", "setting": "[4]; 100 000 nM", "value": 3.00, "unit": "%"}, {"measurement": "PERCENTAGE OF CELL PROLIFERATION", "setting": "[5]; 0.1 nM", "value": 97.00, "unit": "%"}, {"measurement": "PERCENTAGE OF CELL PROLIFERATION", "setting": "[5]; 1 nM", "value": 89.00, "unit": "%"}, {"measurement": "PERCENTAGE OF CELL PROLIFERATION", "setting": "[5]; 10 nM", "value": 44.00, "unit": "%"}, {"measurement": "PERCENTAGE OF CELL PROLIFERATION", "setting": "[5]; 100 nM", "value": 36.00, "unit": "%"}, {"measurement": "PERCENTAGE OF CELL PROLIFERATION", "setting": "[5]; 1 000 nM", "value": 19.00, "unit": "%"}, {"measurement": "PERCENTAGE OF CELL PROLIFERATION", "setting": "[5]; 10 000 nM", "value": 3.00, "unit": "%"}, {"measurement": "PERCENTAGE OF CELL PROLIFERATION", "setting": "[5]; 100 000 nM", "value": 1.00, "unit": "%"}, {"measurement": "PERCENTAGE OF CELL PROLIFERATION", "setting": "[6]; 0.1 nM", "value": 89.00, "unit": "%"}, {"measurement": "PERCENTAGE OF CELL PROLIFERATION", "setting": "[6]; 1 nM", "value": 69.00, "unit": "%"}, {"measurement": "PERCENTAGE OF CELL PROLIFERATION", "setting": "[6]; 10 nM", "value": 24.00, "unit": "%"}, {"measurement": "PERCENTAGE OF CELL PROLIFERATION", "setting": "[6]; 100 nM", "value": 18.00, "unit": "%"}, {"measurement": "PERCENTAGE OF CELL PROLIFERATION", "setting": "[6]; 1 000 nM", "value": 8.00, "unit": "%"}, {"measurement": "PERCENTAGE OF CELL PROLIFERATION", "setting": "[6]; 10 000 nM", "value": 3.00, "unit": "%"}, {"measurement": "PERCENTAGE OF CELL PROLIFERATION", "setting": "[6]; 100 000 nM", "value": 1.00, "unit": "%"}, {"measurement": "PERCENTAGE OF CELL PROLIFERATION", "setting": "U87 (human glioblastoma); 0.1 nM", "value": 105.00, "unit": "%"}, {"measurement": "PERCENTAGE OF CELL PROLIFERATION", "setting": "U87 (human glioblastoma); 1 nM", "value": 72.00, "unit": "%"}, {"measurement": "PERCENTAGE OF CELL PROLIFERATION", "setting": "U87 (human glioblastoma); 10 nM", "value": 14.00, "unit": "%"}, {"measurement": "PERCENTAGE OF CELL PROLIFERATION", "setting": "U87 (human glioblastoma); 100 nM", "value": 7.00, "unit": "%"}, {"measurement": "PERCENTAGE OF CELL PROLIFERATION", "setting": "U87 (human glioblastoma); 1 000 nM", "value": 4.00, "unit": "%"}, {"measurement": "PERCENTAGE OF CELL PROLIFERATION", "setting": "U87 (human glioblastoma); 10 000 nM", "value": 2.00, "unit": "%"}, {"measurement": "PERCENTAGE OF CELL PROLIFERATION", "setting": "U87 (human glioblastoma); 100 000 nM", "value": 6.00, "unit": "%"}]}]}
